The assay deals with human D3 dopamine receptors (Homo sapiens, UniProt P35462). The experiment in a line: [125I] iodosulpride displacement binding to cloned dopamine receptors expressed in CHO cells. As to conditions: displacement of 0.1 nM [125I] iodosulpride, cloned receptor in CHO cell membranes, 30 min at 37° C. How it is done:
The inhibition constants (Ki) of test compounds for displacement of [^125 I] iodosulpride binding to human D2 and D3 dopamine receptors expressed in CHO cells have been determined. […] Cultures were grown as monolayers or in suspension in standard cell culture media. Cells were recovered by scraping (from monolayers) or by centrifugation (from suspension cultures), and were washed two or three times by suspension in phosphate buffered saline followed by collection by centrifugation. Cell pellets were stored frozen at -40° C. Crude cell membranes were prepared by homogenisation followed by high-speed centrifugation, and characterisation of cloned receptors achieved by radioligand binding.
Cell pellets were gently thawed at room temperature, and resuspended in about 20 volumes of ice-cold 50 mM Tris salts (pH 7.4 @37° C.), 20 mM EDTA, 0.2M sucrose. The suspension was homogenised using an Ultra-Turrax at full speed for 15 sec. The homogenate was centrifuged at 18,000 r.p.m for 20 min at 4° C. in a Sorvall RC5C centrifuge. The membrane pellet was resuspended in ice-cold 50 mM Tris salts (pH 7.4 @37° C.), using an Ultra-Turrax, and recentrifuged at 18,000 r.p.m for 15 min at 4° C. in a Sorvall RC5C. The membranes were washed two more times with ice-cold 50 mM Tris salts (pH 7.4 @37° C.). The final pellet was resuspended in 50 mM Tris salts (pH 7.4 @37° C.), and the protein content determined using bovine serum albumin as a standard (Bradford, M. M. (1976) Anal. Biochem. 72, 248-254).
Crude cell membranes were incubated with 0.1 nM [^125 I] iodosulpride (~2000 Ci/mmol; Amersham, U.K.), and the test compound in a buffer containing 50 mM Tris salts (pH 7.4 @37° C.), 120 mM NaCl, 5 mM KCl, 2 mM CaCl2, 1 mM MgCl2, 0.1% (w/v) bovine serum albumin, in a total volume of 1 ml for 30 min at 37° C. Following incubation, samples were filtered using a Brandel Cell Harvester, and washed three times with ice-cold 50 mM Tris salts (pH 7.4 @37° C.), 120 mM NaCl5 mM KCl2 mM CaCl2, 1 mM MgCl2. The radioactivity on the filters was measured using a Cobra gamma counter (Canberra Packard). Non-specific binding was defined as the radioligand binding remaining after incubation in the presence of 100 μM iodosulpride. For competition curves, 14 concentrations (half-log dilutions) of competing cold drug were used.
Competition curves were analysed simultaneously whenever possible using non-linear least-squares fitting procedures, capable of fitting one, two or three site models.

Counter-ions that a name gives are not always drawn.

Chain of human D3 dopamine receptors (P35462 whole entry): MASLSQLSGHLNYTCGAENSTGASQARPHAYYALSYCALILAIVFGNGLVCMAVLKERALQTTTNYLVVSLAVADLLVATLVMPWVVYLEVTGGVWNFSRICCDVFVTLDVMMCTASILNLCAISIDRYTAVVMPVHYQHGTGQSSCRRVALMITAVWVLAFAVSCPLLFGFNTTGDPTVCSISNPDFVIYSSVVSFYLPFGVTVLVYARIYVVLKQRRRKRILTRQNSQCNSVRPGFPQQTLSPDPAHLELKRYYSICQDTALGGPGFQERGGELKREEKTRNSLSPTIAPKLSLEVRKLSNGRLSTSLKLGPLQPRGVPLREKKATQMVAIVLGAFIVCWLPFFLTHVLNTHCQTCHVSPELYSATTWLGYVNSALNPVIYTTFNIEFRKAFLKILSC

In turn, `CCS(=O)(=O)c1ccc(OC)c(-c2ccc(C(C)N3CCCCC3)[nH]2)c1` (single isomer, unassigned; slower eluting) [Example 49, 2-(5-Ethylsulphonyl-2-methoxyphenyl)-5-[1-(1-piperidinyl)-ethyl)-1H-pyrrole, slower eluting enantiomer] registered an IC50 of 0.2 to 26 nM.
Under `COc1c(Br)cc(Br)cc1-c1ccc(CN2CCCCC2)[nH]1` [Example 1, 2-(3,5-Dibromo-2-methoxyphenyl)-5-(1-piperidinylmethyl)-1H-pyrrole hydrochloride] stands 0.2 to 26 nM; under `CCS(=O)(=O)c1ccc(OC)c(-c2ccc(CN3CCCCC3)[nH]2)c1` [Example 2, 2-(5-Ethylsulphonyl-2-methoxyphenyl)-5-(1-piperidinylmethyl)-1H-pyrrole], 0.2 to 26 nM.
Under `CCS(=O)(=O)c1ccc(OC)c(-c2ccc(C(C)N3CCCCC3)[nH]2)c1` (stereo not shown) [Example 16, 2-(5-Ethylsulphonyl-2-methoxyphenyl)-5-[1-(1-piperidinyl)-ethyl)-1H-pyrrolehydrochloride] stands 0.2 to 26 nM; under `CCN(Cc1ccccc1)Cc1ccc(-c2cc(S(=O)(=O)CC)ccc2OC)[nH]1` [Example 27, 2-(5-Ethylsulphonyl-2-methoxyphenyl)-5-(N-benzyl-N-ethyl)-aminomethyl-1H-pyrrole hydrochloride], 0.2 to 26 nM.
In turn, `CCN(Cc1ccccc1)Cc1ccc(-c2cc(S(=O)(=O)CC)cc(Br)c2OC)[nH]1` [Example 30, 2-(3-Bromo-5-ethylsulphonyl-2-methoxyphenyl)-5-(N-benzyl-N-ethyl)aminomethyl-1H-pyrrole hydrochloride] gave an IC50 of 0.2 to 26 nM.
In the case of `COc1cc(Br)cc(-c2ccc(C(C)N3CCCCC3)[nH]2)c1OC` (stereo not shown) [Example 36, 2-(2,3-Dimethoxy-5-bromophenyl)-5-[1-(1-piperidinyl)ethyl]-1H-pyrrole hydrochloride] it was 0.2 to 26 nM.

For orientation: IC50 means the concentration at which inhibition is half-maximal. High values mean weaker potency in that assay, low ones greater potency in that assay.

For the origin of these results see patent US5523299A, “5-(2-oxyphenyl)-pyrrole derivatives as dopamine D3 receptor antagonists” (SmithKline Beecham PLC, priority 1992, dated 1996).
